Consider 15 compounds from patent publication US9617259B2, “Histone deacetylase inhibitors and compositions and methods of use thereof” (CHDI Foundation, Inc., priority 2013, dated 2017).

Chain of human catalytic domain HDAC4 protein (amino acids 648-1032) (P56524 648-1032): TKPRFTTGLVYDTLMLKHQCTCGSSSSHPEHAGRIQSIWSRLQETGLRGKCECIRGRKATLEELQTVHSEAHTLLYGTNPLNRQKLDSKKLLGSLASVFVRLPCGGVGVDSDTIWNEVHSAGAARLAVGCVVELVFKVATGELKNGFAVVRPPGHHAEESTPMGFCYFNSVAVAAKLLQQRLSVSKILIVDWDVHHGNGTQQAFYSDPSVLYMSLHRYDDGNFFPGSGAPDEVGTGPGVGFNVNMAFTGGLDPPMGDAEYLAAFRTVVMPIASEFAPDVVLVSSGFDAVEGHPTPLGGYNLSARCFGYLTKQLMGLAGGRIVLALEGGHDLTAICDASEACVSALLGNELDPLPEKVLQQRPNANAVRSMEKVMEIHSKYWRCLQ

The first test has as its target human catalytic domain HDAC4 protein (amino acids 648-1032) (Homo sapiens (Human), UniProt P56524). In words: Inhibition of HDAC4 catalytic domain enzymatic activity, fluorogenic substrate Boc-Lys(Tfa)-AMC. The following applies: read-out: Biochemical HDAC-4 IC50. The source says: Analysis of Inhibition of HDAC4 with Class IIa Histone Deacetylase (HDAC) Inhibitors
The potency of Class IIa Histone Deacetylase (HDAC) inhibitors is quantified by measuring the Histone Deacetylase 4 (HDAC4) catalytic domain enzymatic activity using the fluorogenic substrate, Boc-Lys(Tfa)-AMC. The substrate is deacetylated to Boc-Lys-AMC by HDAC4. Cleavage by trypsin results in the release of the fluorophore AMC from the deacetylated substrate. The fluorescence of the sample is directly related to the histone deacetylase activity in the sample.
Serial dilutions of the HDAC inhibitors and control reference compound (1-(5-(3-((4-(1,3,4-oxadiazol-2-yl)phenoxy)methyl)-1,2,4-oxadiazol-5-yl)thiophen-2-yl)-2,2,2-trifluoroethanone) are made by first resuspending the lyophilized compound to a final concentration of 10 mM in 100% dimethyl sulfoxide (DMSO). Stocks of 60 μl aliquots of the 10 mM compound in DMSO are prepared and stored at −20° C. From one stock aliquot of each compound to be tested and the reference compound, a 16-point serial dilution is prepared according to
2 μl (200×) of each diluted solution and each control (full activity: 100% DMSO alone or full inhibition 1 mM) is stamped into V-bottomed polypropylene 384-well compound plates using either the Bravo (384-well head from Agilent) or 12.5 μl 16-channel Matrix multi-channel pipette (Matrix Technologies Ltd).
A working solution of enzyme is prepared from a 500 μg/ml stock aliquot of HDAC4 catalytic domain (thawed on ice) diluted to 0.2 μg/ml with assay buffer (50 mM Tris-HCl, 137 mM NaCl, 2.7 mM KCl, and 1 mM MgCl2 at pH 8 and equilibrated to room temperature) just prior to the addition of the enzyme to the assay.
5× (50 μM) substrate is prepared just prior to the addition to the assay. A 1 mM substrate stock is made by diluting a 100 mM Boc-Lys(Tfa)-AMC in DMSO solution 1:100 by adding it drop-wise to assay buffer (equilibrated to room temperature) while vortexing at slow speed to prevent precipitation. The 5× substrate is prepared by diluting the 1 mM substrate solution 1:20 by adding it drop-wise to assay buffer (equilibrated to room temperature) while vortexing at slow speed to prevent precipitation.
3× (30 μM) Developer/Stop Solution is prepared just prior to addition to the plate by diluting a stock solution of 10 mM reference compound 1:333 in 25 mg/ml trypsin (PAA Laboratories Ltd.) equilibrated to room temperature.
5 μl of each solution of 1:20 diluted compound from above is transferred to a clear bottomed, black, 384-well assay plate using the Bravo or the Janus (384-well MDT head from Perkin Elmer). Using a 16-channel Matrix multi-channel pipette, 35 μl of the working solution of HDAC4 catalytic domain enzyme (0.2 μg/ml in assay buffer) is transferred to the assay plate. The assay is then started by adding 10 μl of 5× (50 μM) substrate to the assay plates using either the Bravo, Janus or 16-channel Matrix multi-channel pipette. The assay plate is then shaken for two minutes on an orbital shaker at 900 rpm (rotations per minute). Next the plate is incubated for 15 minutes at 37° C. The reaction is stopped by adding 25 al of 3× (30 μM) developer/stop solution to the assay plates using either the Bravo, Janus or a 16-channel Matrix multi-channel pipette. Assay plates are then shaken for 5 minutes on an orbital shaker at 1200 rpm. Next, the assay plates are incubated at 37° C. for 1 hour in a tissue culture incubator. Finally, the fluorescence is measured (Excitation: 355 nm, Emission: 460 nm) using PerkinElmer EnVision in top read mode.
With `Cc1ncc(C2=C[C@@](C(=O)NO)(c3cccc(F)c3C)CC2)cn1` [Example 9, (R)-1-(3-fluoro-2-methylphenyl)-N-hydroxy-3-(2-methylpyrimidin-5-yl)cyclopent-2-enecarboxamide], the IC50 (as a rule, the midpoint of a concentration-inhibition curve) stood at 26.8 µM.

For the compound `O=C(NO)[C@]1(c2ccccc2)C=C(c2ccccc2)CC1` [Example 33, (S)—N-hydroxy-1,3-diphenylcyclopent-2-enecarboxamide], the IC50 came to 0.19 µM.

As for `O=C(NO)[C@@]1(c2ccccc2)C=C(c2ccccc2)CC1` [Example 34, (R)—N-hydroxy-1,3-diphenylcyclopent-2-enecarboxamide], the IC50 was 31 µM.

Turning to `O=C(NO)[C@]1(c2ccccc2)C=C(c2cncc(F)c2)CC1` [Example 35, (S)-3-(5-fluoropyridin-3-yl)-N-hydroxy-1-phenylcyclopent-2-enecarboxamide], the IC50 was determined as 0.34 µM.

As to `Cc1ncc(Cl)cc1C1=C[C@](C(=O)NO)(c2cccc(F)c2C)CC1` [Example 36, (S)-3-(5-chloro-2-methylpyridin-3-yl)-1-(3-fluoro-2-methylphenyl)-N-hydroxycyclopent-2-enecarboxamide], the IC50 came out at 0.02 µM.

As to `Cc1ncccc1C1=C[C@](C(=O)NO)(c2cccc(F)c2C)CC1` [Example 37, (S)-1-(3-fluoro-2-methylphenyl)-N-hydroxy-3-(2-methylpyridin-3-yl)cyclopent-2-enecarboxamide], the IC50 is 0.01 µM.

Turning to `Cc1c(F)cccc1[C@@]1(C(=O)NO)C=C(c2ccc3cnn(C)c3c2)CC1` [Example 38, (S)-1-(3-fluoro-2-methylphenyl)-N-hydroxy-3-(1-methyl-1H-indazol-6-yl)cyclopent-2-enecarboxamide], the IC50 turned out to be 0.01 µM.

On to `Cc1c(F)cccc1[C@@]1(C(=O)NO)C=C(c2ccc3cnn(C(F)F)c3c2)CC1` [Example 39, (S)-3-(1-(difluoromethyl)-1H-indazol-6-yl)-1-(3-fluoro-2-methylphenyl)-N-hydroxycyclopent-2-enecarboxamide], for which the IC50 came to 0.03 µM.

On to `Cc1c(F)cccc1[C@@]1(C(=O)NO)C=C(c2ccc3scnc3c2)CC1` [Example 40, (S)-3-(benzo[d]thiazol-5-yl)-1-(3-fluoro-2-methylphenyl)-N-hydroxycyclopent-2-enecarboxamide], for which the IC50 turned out to be 0.01 µM.

In the case of `Cc1c(F)cccc1[C@@]1(C(=O)NO)C=C(c2cc3ccccc3s2)CC1` [Example 41, (S)-3-(benzo[b]thiophen-2-yl)-1-(3-fluoro-2-methylphenyl)-N-hydroxycyclopent-2-enecarboxamide], the IC50 stood at 0.02 µM.

Regarding `Cc1c([C@@]2(C(=O)NO)C=C(c3ccc4cnn(C)c4c3)CC2)ccc(F)c1F` [Example 42, (S)-1-(3,4-difluoro-2-methylphenyl)-N-hydroxy-3-(1-methyl-1H-indazol-6-yl)cyclopent-2-enecarboxamide], the IC50 came out at 0.01 µM.

As to `O=C(NO)C1(c2ccccc2)CC=C(c2cncc(F)c2)CC1` (stereo not shown) [Example 43, 4-(5-fluoropyridin-3-yl)-N-hydroxy-1,2,3,6-tetrahydro-[1,1′-biphenyl]-1-carboxamide], the concentration for half-maximal inhibition (IC50) is 3.6 µM.

`Cc1c(F)cccc1C1(C(=O)NO)CC=C(c2cncc(F)c2)CC1` (stereo not shown) [Example 44, 3′-fluoro-4-(5-fluoropyridin-3-yl)-N-hydroxy-2′-methyl-1,2,3,6-tetrahydro-[1,1′-biphenyl]-1-carboxamide]: the IC50 is 0.49 µM.

Consider `Cc1c(F)cccc1C1(C(=O)NO)CC=C(c2ccc3nccnc3c2)CC1` (stereo not shown) [Example 45, 3′-fluoro-N-hydroxy-2′-methyl-4-(quinoxalin-6-yl)-1,2,3,6-tetrahydro-[1,1′-biphenyl]-1-carboxamide], for which the IC50 was determined as 0.55 µM.

The subject of another test is Jurkat E6-1 cells. The experiment in a line: Inhibition of cellular HDAC activity in Jurkat E6-1 cells, fluorogenic substrate Boc-Lys(Tfa)-AMC. The class given is cell-based. The note with it: read-out: Cell IC50. The source says:
Analysis of Inhibition of Cellular HDAC Activity with Class IIa Histone Deacetylase (HDAC) Inhibitors
The potency of Class IIa Histone Deacetylase (HDAC) inhibitors is quantified by measuring the cellular histone deacetylase enzymatic activity using the fluorogenic substrate, Boc-Lys(Tfa)-AMC. After penetration in Jurkat E6-1 cells, the substrate is deacetylated to Boc-Lys-AMC. After cell lysis and cleavage by trypsin, the fluorophore AMC is released from the deacetylated substrate only. The fluorescence of the sample is directly related to the histone deacetylase activity in the sample.
Jurkat E6.1 cells are cultured according to standard cell culture protocols in Jurkat E6.1 Growth Media (RPMI without phenol red, 10% FBS, 10 mM HEPES, and 1 mM Sodium Pyruvate). Jurkat E6.1 cells are counted using a Coulter Counter and resuspended in Jurkat E6.1 growth media at a concentration of 75,000 cells/35 μl. 35 μl or 75,000 cells is seeded into Greiner microtitre assay plates. The plates are then incubated at 37° C. and 5% CO2 while other assay components are being prepared. […]
5 μl of each solution of 1:20 diluted compound from above is transferred to the Greiner microtitre assay plates with 75,000 cells/well using the Bravo. […] Finally the top read fluorescence (Excitation: 355 nm, Emission: 460 nm) is measured using PerkinElmer EnVision.
Consider `Cc1ncc(C2=C[C@@](C(=O)NO)(c3cccc(F)c3C)CC2)cn1` [Example 9, (R)-1-(3-fluoro-2-methylphenyl)-N-hydroxy-3-(2-methylpyrimidin-5-yl)cyclopent-2-enecarboxamide], for which the IC50 is greater than 50 µM.

Turning to `Cc1ncc(C2=C[C@](C(=O)NO)(c3cccc(F)c3C)CC2)cn1` [Example 10, (S)-1-(3-fluoro-2-methylphenyl)-N-hydroxy-3-(2-methylpyrimidin-5-yl)cyclopent-2-enecarboxamide], the IC50 was 0.38 µM.
